According to BindingDB's records for PubMed 39882870 (University of Modena and Reggio Emilia):

Biological target: Adenosine receptor A2a (Homo sapiens) (UniProt P29274)
Test: Negative allosteric modulation of A2AR (unknown origin) expressed in CHO cells in presence of adenosine by CamBio assay

Chain of Adenosine receptor A2a (Homo sapiens) (P29274 whole entry, looked up): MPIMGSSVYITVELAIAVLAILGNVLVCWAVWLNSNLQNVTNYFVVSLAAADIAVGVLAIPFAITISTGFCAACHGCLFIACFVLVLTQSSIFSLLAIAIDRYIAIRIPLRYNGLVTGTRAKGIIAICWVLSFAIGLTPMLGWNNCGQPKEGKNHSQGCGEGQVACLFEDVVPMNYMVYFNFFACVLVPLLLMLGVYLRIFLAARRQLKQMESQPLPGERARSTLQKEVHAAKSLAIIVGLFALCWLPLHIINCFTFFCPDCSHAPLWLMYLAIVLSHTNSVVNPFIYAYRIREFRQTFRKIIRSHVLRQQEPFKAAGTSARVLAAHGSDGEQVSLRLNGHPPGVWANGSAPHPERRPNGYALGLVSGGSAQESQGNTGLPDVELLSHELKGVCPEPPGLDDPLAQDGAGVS

IC50: 9 nM
SMILES: N#Cc1c(N)nc(N2CCCCC2)c(C#N)c1-c1cccnc1
